Patent US20260138961A1, “MODULATORS OF MITOCHONDRIAL DNA REPLICATION” (Pretzel Therapeutics, Inc., priority 2022, published 2026)

Target: T1, human POLγ 3′-5′ exonuclease activity (Homo sapiens, UniProt P54098)
T1 sequence (P54098 1-1239): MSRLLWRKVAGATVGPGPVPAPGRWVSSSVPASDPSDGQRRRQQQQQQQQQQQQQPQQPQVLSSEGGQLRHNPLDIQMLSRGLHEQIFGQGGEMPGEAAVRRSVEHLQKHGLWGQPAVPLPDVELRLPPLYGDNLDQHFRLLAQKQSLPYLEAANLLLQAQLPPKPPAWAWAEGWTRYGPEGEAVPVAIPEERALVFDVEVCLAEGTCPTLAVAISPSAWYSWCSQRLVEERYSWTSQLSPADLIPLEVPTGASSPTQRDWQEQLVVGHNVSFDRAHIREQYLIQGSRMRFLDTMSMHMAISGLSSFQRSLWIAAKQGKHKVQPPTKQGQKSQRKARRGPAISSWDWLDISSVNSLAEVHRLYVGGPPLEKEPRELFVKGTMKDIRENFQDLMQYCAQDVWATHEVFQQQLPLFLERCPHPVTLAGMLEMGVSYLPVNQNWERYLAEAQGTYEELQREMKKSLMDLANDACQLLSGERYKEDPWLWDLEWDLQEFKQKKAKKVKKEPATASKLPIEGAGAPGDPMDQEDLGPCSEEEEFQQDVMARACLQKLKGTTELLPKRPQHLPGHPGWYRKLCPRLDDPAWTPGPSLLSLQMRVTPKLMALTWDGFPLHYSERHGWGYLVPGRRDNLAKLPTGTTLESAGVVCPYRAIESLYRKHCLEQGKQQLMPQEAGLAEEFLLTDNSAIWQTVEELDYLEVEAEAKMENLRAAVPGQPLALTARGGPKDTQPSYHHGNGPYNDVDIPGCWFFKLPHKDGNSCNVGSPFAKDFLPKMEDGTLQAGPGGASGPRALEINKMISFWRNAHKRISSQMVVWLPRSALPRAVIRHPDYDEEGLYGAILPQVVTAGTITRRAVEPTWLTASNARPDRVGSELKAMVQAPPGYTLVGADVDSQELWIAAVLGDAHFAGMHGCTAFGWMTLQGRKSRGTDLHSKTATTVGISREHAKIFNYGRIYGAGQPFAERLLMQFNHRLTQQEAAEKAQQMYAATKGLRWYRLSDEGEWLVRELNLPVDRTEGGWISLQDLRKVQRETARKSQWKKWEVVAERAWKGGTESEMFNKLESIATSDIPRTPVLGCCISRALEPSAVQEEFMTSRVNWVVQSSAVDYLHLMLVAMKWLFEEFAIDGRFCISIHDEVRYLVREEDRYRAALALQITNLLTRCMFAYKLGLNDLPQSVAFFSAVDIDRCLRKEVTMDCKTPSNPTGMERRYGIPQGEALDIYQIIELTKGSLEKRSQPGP
T1 sequence (Q9UHN1 1-485 partner): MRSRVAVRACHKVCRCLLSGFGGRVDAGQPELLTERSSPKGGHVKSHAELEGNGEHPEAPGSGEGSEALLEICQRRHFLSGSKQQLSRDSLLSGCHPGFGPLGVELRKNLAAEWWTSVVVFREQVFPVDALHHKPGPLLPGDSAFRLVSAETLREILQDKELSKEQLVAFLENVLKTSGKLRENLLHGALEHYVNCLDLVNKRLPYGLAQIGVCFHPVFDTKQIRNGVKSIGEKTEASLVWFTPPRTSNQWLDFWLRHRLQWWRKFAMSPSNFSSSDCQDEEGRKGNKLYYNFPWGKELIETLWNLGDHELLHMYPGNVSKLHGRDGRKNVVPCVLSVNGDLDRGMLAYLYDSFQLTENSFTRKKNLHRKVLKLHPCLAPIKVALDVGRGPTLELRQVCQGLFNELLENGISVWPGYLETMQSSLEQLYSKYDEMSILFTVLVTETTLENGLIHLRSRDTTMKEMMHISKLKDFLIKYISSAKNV
Experiment: Exonuclease inhibition assay with human POLγ (SYBR Green I fluorescence)
Format: biochemical
Settings: POLγA 1 nM, POLγB 1.3 nM, 5 nM exonuclease template, no dNTPs, 37° C. 2.5 hours
Description: Exonuclease inhibition assay with human POLγ.
The ability of small molecules to inhibit the 3′-5′ exonuclease activity of POLγ was analyzed in a quantitative fluorescence SYBR Green I assay with fluorescence intensity (FI) readout.
Human POLγ was incubated with a linear, partially double-stranded template containing an 85 base pair double-stranded DNA stretch and a 15 nucleotides long single-stranded 5′-tail (hereafter referred to as the “exonuclease template”). […] When bound to double-stranded DNA, SYBR Green I fluorescence increases by up to 100-fold. In the absence of deoxynucleotide triphosphates (dNTPs), the exonuclease activity of POLγ degrades the 85-mer strand, which leads to the formation of single-stranded DNA (ssDNA) and decreased fluorescent intensity. The assay was performed in a 384-well plate format.
The exonuclease template used was generated by hybridization of a 100 nucleotides long, single-stranded DNA molecule with an inverted dT at the 3′-end (5′-TTTTTTTTTATCCGGGCTCGTTATCTAAGCTGCTCTTGGTAGGCATTGACGTCCATACTGCAAATTCAGCTCTGTGCAGTTAGGCAGGAGTCTACAAGC invT-3′) to an 85 nucleotides long single-stranded DNA molecule (5′-AGCTTGTAGACTCCTGCCTAACTGCACAGAGCTGAATTTGCAGTATGGACGTCAATGCCTACCAGAGCAGCTTAGATAACGAGC-3′), using a Bio-Rad T100 Thermal Cycler. The inverted dT is characterized by a 3′-3′ linkage, which inhibits both degradation of the 3′-5′ exonuclease activity and extension by DNA polymerases.
POLγ is an heterotrimer of one POLγA subunit (harboring exonuclease and DNA polymerase activities) and two accessory POLγB subunits. Proteins used in the exonuclease assay were POLγA (NP_002684) and POLγB (NP_009146).
The protein mixture used in the assays contained POLγA (1 nM), POLγB (1.3 nM, concentration calculated as a dimer), 25 mM Tris-HCl (pH 8.0), 0.1 mg/mL bovine serum albumin, 1 mM Bond-Breaker TCEP solution (pH 7) [Thermo Fisher], 25 mM NaCl, and 0.02% Triton X-100.
The DNA template mixture used in the assay contained 5 nM of the exonuclease template, 25 mM Tris-HCl (pH 8.0), 10 mM MgCl2, 0.1 mg/mL bovine serum albumin, 1 mM Bond-Breaker TCEP solution [Thermo Fisher], and 0.02% Triton X-100.
Microplates with compounds (0.1 μL in each well) to be tested in the assay were prepared from 10 mM compound stocks in 100% DMSO, and equal amounts of DMSO without any compound were added to positive and negative control wells.
The protein mixture containing POLγ was dispensed (5 μL in each well) into compound plates and incubated at 37° C. for 15 minutes to allow compound binding to the POLγ complex. After incubation, 5 μL of the DNA template mixture was dispensed into each well. The plates were incubated at 37° C. for 2.5 hours.
During incubation, a combined stop buffer and detection reagent solution was prepared. The buffer contained 25 mM EDTA (pH 8.0), 0.02% Triton X-100, and SYBR Green I [Invitrogen] diluted 10,000× (for fluorescent readout). EDTA will stop the enzymatic reaction by chelating magnesium ions.
After the 2.5-hour incubation period, the SYBR Green I solution was added (10 μL) to the screening plates and the plates were incubated at room temperature in the dark for 20 minutes before the fluorescent signal was read between […] on a BMG Pherastar microtiter plate reader.

Row | Molecule | IC50 [µM]
1 | Cc1cc(S(=O)(=O)Nc2cccc(C(=O)N(C)C(C)CO)c2)c(C)cc1Cl (single isomer, unassigned) [Example 14, 3-((4-chloro-2,5-dimethylphenyl)sulfonamido)-N-(1-hydroxypropan-2-yl)-N-methylbenzamide] | 3
2 | Cc1ccc(C)c(S(=O)(=O)Nc2cccc(C(=O)N3CCCCC3C#N)c2)c1 (stereo not shown) [Example 2, N-(3-(2-cyanopiperidine-1-carbonyl)phenyl)-2,5-dimethylbenzenesulfonamide] | 4
3 | Cc1ccc(C)c(S(=O)(=O)Nc2cccc(C(=O)N3CCCCC3)c2)c1 [Example 3, 2,5-dimethyl-N-(3-(piperidine-1-carbonyl)phenyl)benzene sulfonamide] | 10
4 | Cc1ccc(C)c(S(=O)(=O)Nc2cccc(C(=O)NCC3CC3)c2)c1 [Example 4, N-(cyclopropylmethyl)-3-((2,5-dimethylphenyl)sulfonamido)benzamide] | 48
5 | Cc1ccc(C)c(S(=O)(=O)Nc2cccc(C(=O)N3CCCC[C@H]3C)c2)c1 [Example 5, (R)-2,5-dimethyl-N-(3-(2-methylpiperidine-1-carbonyl)phenyl)benzenesulfonamide] | 3
6 | Cc1ccc(C)c(S(=O)(=O)Nc2cccc(C(=O)N3CCCC[C@@H]3C)c2)c1 [Example 6, (S)-2,5-dimethyl-N-(3-(2-methylpiperidine-1-carbonyl)phenyl)benzenesulfonamide] | 12
7 | Cc1ccc(C)c(S(=O)(=O)Nc2cccc(C(=O)N3CCOCC3C#N)c2)c1 (stereo not shown) [Example 7, N-(3-(3-cyanomorpholine-4-carbonyl)phenyl)-2,5-dimethylbenzenesulfonamide] | 1
8 | Cc1ccc(C)c(S(=O)(=O)Nc2cccc(C(=O)N[C@@H](C)C3CC3)c2)c1 [Example 8, (S)-N-(1-cyclopropylethyl)-3-((2,5-dimethylphenyl)sulfonamido)benzamide] | 9
9 | Cc1cc(S(=O)(=O)Nc2cccc(C(=O)N3CCCC[C@H]3C)c2)c(C)cc1Cl [Example 9, (R)-4-chloro-2,5-dimethyl-N-(3-(2-methylpiperidine-1-carbonyl)phenyl)benzenesulfonamide] | 2
10 | Cc1cc(S(=O)(=O)Nc2cccc(C(=O)N3CCC[C@H]3C)c2)c(C)cc1Cl [Example 10, (R)-4-chloro-2,5-dimethyl-N-(3-(2-methylpyrrolidine-1-carbonyl)phenyl)benzenesulfonamide] | 0.8
11 | Cc1cc(S(=O)(=O)Nc2cccc(C(=O)NCc3ccccc3)c2)c(C)cc1Cl [Example 11, N-benzyl-3-((4-chloro-2,5-dimethylphenyl)sulfonamido)benzamide] | > 100
12 | Cc1cc(S(=O)(=O)Nc2cccc(C(=O)N(C)C)c2)c(C)cc1Cl [Example 12, 3-((4-chloro-2,5-dimethylphenyl)sulfonamido)-N,N-dimethylbenzamide] | 5
13 | Cc1cc(S(=O)(=O)Nc2cc(F)cc(C(=O)N3CCC[C@H]3C)c2)c(C)cc1Cl [Example 13, (R)-4-chloro-N-(3-fluoro-5-(2-methylpyrrolidine-1-carbonyl)phenyl)-2,5-dimethylbenzenesulfonamide] | 6
14 | Cc1cc(S(=O)(=O)Nc2cccc(-c3nccs3)c2)c(C)cc1Cl [Example 16, 4-chloro-2,5-dimethyl-N-(3-(thiazol-2-yl)phenyl)benzenesulfonamide] | 12
15 | Cc1cc(S(=O)(=O)Nc2cccc(-c3ncco3)c2)c(C)cc1Cl [Example 17, 4-chloro-2,5-dimethyl-N-(3-(oxazol-2-yl)phenyl)benzenesulfonamide] | > 100
16 | Cc1cc(S(=O)(=O)Nc2cccc(-c3ccn(C)n3)c2)c(C)cc1Cl [Example 18, 4-chloro-2,5-dimethyl-N-(3-(1-methyl-1H-pyrazol-3-yl)phenyl)benzenesulfonamide] | 81
17 | Cc1cc(S(=O)(=O)Nc2cccc(-c3nccn3C)c2)c(C)cc1Cl [Example 19, 4-chloro-2,5-dimethyl-N-(3-(1-methyl-1H-imidazol-2-yl)phenyl)benzenesulfonamide] | 8
18 | Cc1cc(S(=O)(=O)Nc2ccc3c(c2)CC(=O)N3)c(C)cc1Cl [Example 185, 4-chloro-2,5-dimethyl-N-(2-oxoindolin-5-yl)benzenesulfonamide] | 6
19 | (R)-2,5-dimethyl-N-(3-(3-methylmorpholine-4-carbonyl)phenyl)benzenesulfonamide [Example 1] | 7
